How the values were obtained:
[1] = system: SHR (spontaneous hypertensive) rats, stroke by MCA occlusion; assay: Rotating pole or cylinder test after MCA occlusion (Example 1); assay type: in vivo, rat; conditions: 0.03-10 mg/kg s.c. or p.o. from two days after MCAO for 2-8 weeks; present-tense example
Excerpt: Male 3 months old SHR (spontaneous hypertensive) rats are used for induction of stroke by MCA occlusion. This is the preferred strain since most stroke patients are hypertensive. The animals are anesthetized with Methohexital and a small craniectomy is made above the zygmotic arch to expose the middle cerebral artery, which is occluded with a 10-0 monofilament nylon thread distal to the origin of the striatal branches. The rats are not intubated and no catheters are inserted. Following MCA occlusion a large and reproducible infarct is obtained, leading to a robust sensorimotor deficit. The animals are kept on a 6 hr light/18 h dark cycle with free access to food and water. At two days after the MCAO the rats are treated with the compound I, II, III, IV, V, VI, VII, VIII, or IX (0.03-10 mg/kg) s.c. or p.o. and a control group is given saline for 2-8 weeks. At 2, 4, 6 and 8 weeks animals are tested in the rotating pole or cylinder test
(§1) The cylinder test (modified from Schallert and Tillerson (Innovative models of CNS disease: from molecule to therapy. Clifton, N.J., Humana, 1999) is used to quantify the forelimb use for rearing on the cylinder wall. The rats are monitored as they move freely in a 20-cm-wide clear glass cylinder. Contacts made by each forepaw with the cylinder wall while rearing are scored by a blinded observer. A total of 20 contacts are recorded for each animal, and the number of impaired (left), both, and non-impaired forelimb contacts as percentage of total contacts is calculated. Baseline for rats is achieved by measuring the contacts made by each forepaw before MCAO.

[2] = system: ischemia in gerbils; conditions: cited from earlier work
[3] = system: sigma-1 site compared to the sigma-2 site; conditions: (+) isomers of benzomorphan opiates; cited from earlier work
[4] = system: NMDA-induced toxicity and seizures; conditions: in vivo models; cited from earlier work
[5] = system: rat primary neuronal cultures; conditions: cited from earlier work
[6] = system: spontaneously hypertensive rats exposed to permanent middle artery occlusion (MCAO); assay: Cylinder test for asymmetric forelimb use after permanent MCAO (Example 2); assay type: in vivo, rat; conditions: 0.3 mg/kg; all time points measured
Description: as §1
Forty three spontaneously hypertensive rats were exposed to permanent middle artery occlusion (MCAO), then divided into three treatment groups. […] At the start of treatment, and at several time points during the test, the rats were assessed for their performance in the cylinder test. […] The performance of the rats in the test was assessed one day before permanent MCAO, then at 14 days, 28 days and 59 days after permanent MCAO. The rats were monitored as they moved freely in a 20 cm-wide clear glass cylinder. Contacts made by each forepaw with the cylinder wall while rearing were scored by a blinded observer. […]

[7] = system: cultured rat retinal neurons; conditions: cited from earlier work
[8] = system: spontaneously hypertensive rats exposed to permanent middle artery occlusion (MCAO); assay: Rotating pole test after permanent MCAO (Example 2); assay type: in vivo, rat; conditions: rotating pole score 0-6
Excerpt: A score of 6-0 is given for each direction:
6, the animal crosses the pole with no foot slips;
5, the animal crosses the pole with a few foot slips;
4, the animal crosses the pole, slipping 50% of the footsteps;
3, the animal crosses the pole with more than 50% foot slips;
2, the animal walks a bit and then rotates around the pole;
1, the animal rotates around the pole without crossing it;
0, the animal falls off the pole.
Thirty five spontaneously hypertensive rats were exposed to permanent middle artery occlusion (MCAO), then divided into three treatment groups. Starting at two days after occlusion and continuing daily until 28 days after occlusion, SA4503 was administered s.c. in doses of 0.3 mg/kg (12 rats) or 1.0 mg/kg (12 rats). In a control group (11 rats), vehicle only was administered. At the start of treatment, and at several time points during the test, the rats were assessed for their performance in the rotating pole model. This model is described in Example 1. It requires the rats to cross a horizontally suspended rotating pole having a length of 1 m. This task measures the sensory-motor performance of the animals. The animals' behaviour was recorded using a video camera and later analyzed and scored by a trained technician. The scoring ranges from 0 to 6, with 0 being very poor performance and 6 reflecting the performance of a healthy animal (without MCAO).

[9] = hydrohalide salts, in particular the hydrochloride salt; cited from earlier work

O=C(OCCN1CCOCC1)C1(c2ccccc2)CCCCC1 [III, 1-phenylcyclohexane-1-carboxylic acid-2-morpholinoethyl ester]
performance in the rotating pole test or the cylinder test versus control [1]: perform better than the group 1 control animals

OCCN1CCN(CCCN2c3ccccc3C=Cc3ccccc32)CC1 [opipramol]
protection against ischemia [2]: protect against ischemia

O=C(NC1CCN(Cc2ccccc2)CC1)c1ccc(I)cc1 [II, N-(N-benzylpiperidin-4-yl)-4-iodobenzaminde]
performance in the rotating pole test or the cylinder test versus control [1]: perform better than the group 1 control animals

CN(CCc1ccc(Cl)c(Cl)c1)[C@H]1CCCC[C@H]1N1CCCC1 [VIII, (−)-(1S, 2R)-N-[2-(3,4-dichlorophenyl)ethyl]-N-methyl-2-(pyrrolidin-1-yl) cyclohexylamine]
performance in the rotating pole test or the cylinder test versus control [1]: perform better than the group 1 control animals

COc1ccc(CN2CCN(Cc3ccccc3)CC2)c(O)c1OC [IX, N-benzyl-N′-(2-hydroxy-3,4-dimethoxybenzyl)-piperazine]
performance in the rotating pole test or the cylinder test versus control [1]: perform better than the group 1 control animals

(+)SKF 10,047
affinity for the sigma-1 site compared to the sigma-2 site [3]: nearly two orders of magnitude higher affinity for the sigma-1 site

OC(CCCN1CCN(c2ncc(F)cn2)CC1)c1ccc(F)cc1 (stereo not shown) [BMY-14802]
protective effects against NMDA-induced toxicity and seizures [4]: consistent with affording protective effects

COc1ccc(CCN2CCN(CCCc3ccccc3)CC2)cc1OC [SA4503, 1-(3,4-dimethoxyphenethyl)-4-(3-phenylpropyl) piperazine]
suppression of hypoxia/hypoglycemia-induced neurotoxicity [5]: significantly suppress
asymmetry of paw usage [6]: reduced to pre-MCAO levels
performance in the rotating pole test or the cylinder test versus control [1]: perform better than the group 1 control animals
activity against glutamate neurotoxicity [7]: active
total average score at day 30 ([8]; 0.3 mg/kg s.c.): 5.2
Average Increase in Score at Day 30 (SEM) ([8]; 0.3 mg/kg s.c. daily from day 2 to day 28 after MCAO): 3.5 (SEM 0.4) (p < 0.05)
Average Increase in Score at Day 30 (SEM) ([8]; 1.0 mg/kg s.c. daily from day 2 to day 28 after MCAO): 3.67 (SEM 0.48) (p < 0.05)

CCN(CC)CCOC(=O)C1(c2ccccc2)CCCC1 [caramiphen]
protective effects against NMDA-induced toxicity and seizures [4]: consistent with affording protective effects

O=C(CCCN1CCC(O)(c2ccc(Cl)cc2)CC1)c1ccc(F)cc1 [haloperidol]
protective effects against NMDA-induced toxicity and seizures [4]: consistent with affording protective effects

COc1cccc2c1CCC(=O)N2CCCN1CCN(c2cccc(Cl)c2)CC1 [VII, 1-[3-[4-(3-chlorophenyl)piperazin-1-yl]propyl]-5-methoxy-1,2,3,4-tetrahydroquinolin-2-one]
performance in the rotating pole test or the cylinder test versus control [1]: perform better than the group 1 control animals

COCCCC/C(=N\OCCN)c1ccc(C(F)(F)F)cc1 [fluvoxamine, 5-methoxy-4′-(trifluoromethyl)valerophenone O-(2-aminoethyl)oxime]
performance in the rotating pole test or the cylinder test versus control [1]: perform better than the group 1 control animals

CC(C)=CCN1CCC2(C)c3cc(O)ccc3CC1C2C (single isomer, unassigned; (+)) [(+)pentazocine]
affinity for the sigma-1 site compared to the sigma-2 site [3]: nearly two orders of magnitude higher affinity for the sigma-1 site

Fc1ccc(-n2cc(CCCCN3CCC4(CC3)OCc3ccccc34)c3ccccc32)cc1 [siramesine, 1′-[4-[1-(4-fluorophenyl)-1H-indol-3-yl]-1-butyl] spiro [isobenzofuran-1(3H),4′-piperidine]]
performance in the rotating pole test or the cylinder test versus control [1]: perform better than the group 1 control animals
bioavailability [9]: good bioavailability

CCC(C/C=C/c1ccccc1)(c1ccccc1)N(C)CC1CC1 (single isomer, unassigned; (+)) [VI, (+)-N-(cyclopropylmethyl)-N-[1-ethyl-1,4-diphenyl-3(E)-butenyl]-N-methylamine]
performance in the rotating pole test or the cylinder test versus control [1]: perform better than the group 1 control animals

Source: patent US20050020483A1, “Sigma ligands for neuronal regeneration and functional recovery” (priority 2003, published 2005)
